Results from patent publication US20250114331A1, “CONCURRENT TARGETING OF ONCOGENIC PATHWAYS TO ENHANCE CHEMOTHERAPY AND IMMUNOTHERAPY” (THE JOHNS HOPKINS UNIVERSITY, priority 2021, published 2025).
Entries after “also recorded” stand apart in the source; their conditions may differ.

How the values were obtained:
[1] = tested on: H1299, H1437 and A549 cells; assay: Cell viability assay with cisplatin in YAP1/STAT3-modified cells; format: cell-based, human
Procedure: Cell proliferation assay and viability assay. Cell proliferation and viability were evaluated using Cell Counting Kit-8 (Dojindo Molecular Technologies). For cell proliferation assay, after cells (5×10^3/well) were seeded into 96-well plates with RPMI1640 containing 2% FBS, the optical density of each well was measured every 24 hours for 4 days. We added […] of cell counting kit-8 solution to each well 2 hours before measuring the absorbance (17). For the cell viability assay, after cells were incubated for 48 hours (5×10^3/well), they were exposed to each respective therapeutic agent for 72 hours. Cell viability for each agent was defined as the ratio of absorbance values of the treated cells to control cells (i.e., pharmacologically untreated or genetically unmodified). Absorbance values (450-630 nm) were measured by a Spectra Max 250 96-well Plate Reader (Molecular Devices). Each sample was applied to six wells, and their average rate was calculated. The therapeutic agents used here (in vitro) were cisplatin (Sigma-Aldrich; #P4394), S3I-201 (Santa Cruz Biotechnology; #sc-204304; ref. 18), and verteporfin (MedKoo; #203120).

[2] = tested on: H1299, H1437 and A549 cells; assay: Apoptosis assay with cisplatin in YAP1-modified cells; format: cell-based, human; settings: cisplatin 2 or 5 for 72 hours
Procedure: Apoptosis assay. Cells were incubated for 72 hours with CDDP (2 μM or 5 μM) or normal saline. Apoptosis assays were conducted using PE Annexin V Apoptosis Detection Kit with 7-AAD (BioLegend, San Diego, USA) according to manufacturer's protocol. Treated cells were analyzed by BD FACSCalibur flow cytometer (BD Biosciences, San Jose, USA).

H1437 xenografts = assay: H1437 xenograft treatment; format: in vivo, NSG mice; settings: verteporfin 50 mg/kg i.p. three times a week; S3I-201 5 mg/kg i.p. every day
Excerpt: (§1) For therapeutic experiments, 4- to 5-week-old NOD/SCID/IL2Ry−/− (NSG) mice were obtained from the Johns Hopkins Medical Institute's (Baltimore, MD) animal care facility. We injected H1299 cells (1×106) and H1437 cells (1×106), which were suspended in the mixture as described above, subcutaneously into both flanks. For the patient-derived xenograft (PDX) models, 13 PDX blocks (CTG0162, 0178, 0502, 0848, 1309, 1351, 1358, 1361, 1762, 1885, 2017, 2481, and 2708) were obtained from Champion Oncology. All these PDXs were established from primary lung adenocarcinoma tumors. The tumor tissues were cut into 4×2 mm pieces and implanted in the subcutaneous spaces of both flanks. When tumor volumes reached to 200+50 mm3, mice were randomly assigned to six experimental groups [control, chemo (cisplatin+gemcitabine), chemo+verteporfin, chemo+S3I-201, “all” (cisplatin+gemcitabine+verteporfin+S3I-201), and verteporfin+S3I-201] at 5 mice per group. Cisplatin (Sigma-Aldrich; #P4394), gemcitabine (Medkoo; #100410), S3I-201 (MedKoo; #202541), and verteporfin (Sigma-Aldrich; #1711461) were used to treat the mice. Cisplatin (2.5 mg/kg) and gemcitabine (120 mg/kg) were administrated via intraperitoneal injection once a week (22). […] Each tumor volume was measured every 3 days. Therapeutic efficacy was evaluated from percentage change of the tumor volume compared with the tumor size before treatment.

H1299 and H1437 cells [3] = assay: qRT-PCR of YAP1 and STAT3 pathway genes after drug treatment for 72 hours; format: cell-based, human
Procedure: qRT-PCR. The mRNA expression level of each gene was determined by qRT-PCR. […] We quantified the β-actin mRNA level to normalize the expression levels of the targeted genes. Each sample was tested in triplicate and run three times. Each graph shown in our figures indicates the average mRNA expression level of targeted genes compared with the β-actin expression level, with standard error of mean. To determine doses of these drugs that are effective for pathway inhibition, H1299 and H1437 cells were treated with verteporfin or S3I-201 for 72 hours.

H1299 and H1437 cells [4] = assay: Immunoblotting of YAP1, STAT3 and pSTAT3 after drug treatment; format: cell-based, human
Procedure: Western blotting. Cells were dissolved in RIPA buffer (Thermo Fisher Scientific) supplemented with proteinase inhibitor and phosphatase inhibitor cocktails (Roche, Mannheim, Germany). After total protein lysate was electrophoretically transferred onto PVDF membrane, the membrane was blocked with 5% skim milk in 0.05% TBS-Tween buffer and incubated at 4° C. overnight with a primary antibody specific to each protein. The membrane was then probed with an appropriate secondary antibody (Cell Signaling Technology, Danvers, USA). β-actin served as an endogenous control. The primary antibodies and dilution ratios were β-actin (Sigma-Aldrich; #A2228; 1:5000), NANOG (D73G4; Cell Signaling Technology; #4903; 1:1000), OCT4 (D705Z; Cell Signaling Technology; #75463; 1:500), SOX2 (EPR3131; Abcam, Cambridge, UK; #ab92494; 1:500), STAT3 (124H6; Cell Signaling Technology; #9139; 1:2000), pSTAT3 (D3A7; Cell Signaling Technology; #9145; 1:1000) and YAP1 (EP1674Y; Abcam, #ab52771; 1:2000).
To determine doses of these drugs that are effective for pathway inhibition, H1299 and H1437 cells were treated with verteporfin or S3I-201 for 72 hours.

MB49 derived xenograft = MB49 derived xenograft treated with STAT3 inhibitor; format: in vivo, C57BL/6 mice; settings: for expression of CSC associated markers and CXCLs in tumor tissues: qRT-PCR
Procedure: In vivo xenograft assay and treatment. For in vivo xenograft, cells were suspended in 100 μL of a 1:1 mixture of serum-free DMEM and Cultrex Stem Cell Qualified Reduced Growth Factor Basement Membrane Extract (Trevigen, Gaithersburg, USA), and then injected subcutaneously into the both flanks of C57BL/6 mice for MB49/UPPL595/BBN975 cells.
YAP1 induces immunosuppression partially through IL6/STAT3 signaling and STAT3 inhibition mimics the antitumor activity of YAP1 attenuation. The present inventors recently reported that YAP1 positively regulates IL6/STAT3 signaling (38) in LUAD.

H1299 xenografts = assay: H1299 xenograft treatment; format: in vivo, NSG mice; settings: verteporfin 50 mg/kg i.p. three times a week; S3I-201 5 mg/kg i.p. every day
Excerpt: as §1

pSTAT3 = assay: Recombinant IL6 stimulation (Western blotting); format: cell-based, human; settings: H1299 and H1437 YAP1-sh cells, 0.1, 1, or 10 ng/mL
Procedure: Recombinant IL6 stimulation and neutralization of IL6. For exogenous IL6 stimulation, 5×10^5 cells were seeded in 10-cm dishes. After 48 hours, human recombinant IL6 (0.1, 1, or 10 ng/mL) from PeproTech was added to the cells. They were harvested after 48-hour incubation. To neutralize the IL6, Human/Primate IL6 Antibody (R&D Systems) was administered. We cultured 5×10^5 cells in 10-cm dishes. After 48 hours, antibody (1 mg/mL) was added to the cells. They were then harvested after 24 or 48 hours. Protein expression of each sample was evaluated by Western blotting.

Compound: N.N.[Cl][Pt][Cl] [cisplatin]
- sensitivity to cisplatin (cell viability) ([1]; A549 YAP1-LV cells versus control cells, 72 hours): relatively resistant; also recorded: higher resistance
- sensitivity to cisplatin (cell viability) ([1]; A549 YAP1-LV/STAT3-si cells versus YAP1-LV/STAT3-Ctrl cells): restored cisplatin sensitivity
- sensitivity to cisplatin (cell viability) ([1]; H1299 and H1437 YAP1-sh cells versus control cells, 72 hours): increased sensitivities; also recorded: greater sensitivity
- sensitivity to cisplatin (cell viability) ([1]; YAP1-sh/STAT3-LV cells (H1299 and H1437) versus YAP1-sh/STAT3-Ctrl cells, 72 hours, 5 cisplatin): restored cell proliferation and cisplatin resistance; also recorded: less sensitivity
- sensitivity to cisplatin (cell viability) ([1]; YAP1-sh/STAT3-si cells (H1299 and H1437) versus single inhibition or control): greater sensitivity; also recorded: highest sensitivity
- cells undergoing apoptosis ([2]; YAP1-LV cells versus control cells): lower fractions; also recorded: substantially less apoptosis
- cells undergoing apoptosis ([2]; YAP1-sh cells versus control cells): higher fractions of apoptotic cells; also recorded: greater percentages of cells undergoing apoptosis

Compound: Cc1ccc(S(=O)(=O)OCC(=O)Nc2ccc(C(=O)O)c(O)c2)cc1 [S3I-201]
- tumor growth (H1437 xenografts): did not significantly affect tumor growth
- mRNA expression of STAT3 and its targeted genes NRP1 and PROS1 (H1299 and H1437 cells [3]): suppressed both STAT3 and its targeted genes; also recorded: inhibited mRNA expressions of not only NRP1 and PROS1 (STAT3-targeting genes) but also STAT3
- pSTAT3 expression (H1299 and H1437 cells [4]): suppressed pSTAT3 without affecting YAP1 or total STAT3 expressions; also recorded: suppressed pSTAT3 in a dose-dependent manner
- infiltration of MDSCs (GR-1) and CD8+ T cells in the TME, IHC (MB49 derived xenograft; mouse, in vivo): decreased infiltration of MDSCs (GR-1) and significantly more CD8+ T cells
- tumor growth (MB49 derived xenograft; mouse, in vivo): significant regression of the tumor growth
- expression of CSC associated markers and CXCLs in tumor tissues (MB49 derived xenograft; listed as STAT3 inhibitor): downregulate different CXCR2 associated ligands
- expression of CSC associated markers and CXCLs in tumor tissues (MB49 derived xenograft; listed as STAT-3 inhibitor): significantly decreased expression of CSC associated markers and CXCLs
- tumor growth (H1299 xenografts): inhibited growth

Compound: IL6: human recombinant IL6 from PeproTech
- pSTAT3 level (pSTAT3): increased pSTAT3 expressions in a dose-dependent manner
- pSTAT3 level (pSTAT3; listed as recombinant human IL6): increased pSTAT3 levels dose dependently
